Starred links: 1 amine or outer side, 2 acyl side, 3 side chain; linkers in the order of their positions; H or OH if unused. Non-standard residues stand in square brackets, D forms with d. Residues, ends and D or L forms follow the SMILES beside them. *: point of attachment. dAla(cis-4-NHCOPyz-cHex) = N[C@H](C[C@H]1CC[C@@H](NC(=O)c2cnccn2)CC1)C(=O)O; X1 = O=C(N[C@H]1CC[C@@H](C[C@@H](N[*:1])C(=O)[*:2])CC1)c1ccccn1; X2 = O=C(N[C@H]1CC[C@@H](C[C@H](N[*:1])C(=O)[*:2])CC1)c1cnccn1; dPhe(4-Cl) = N[C@H](Cc1ccc(Cl)cc1)C(=O)O; d2Nal = N[C@H](Cc1ccc2ccccc2c1)C(=O)O; Lys(iPr) = CC(C)NCCCC[C@H](N)C(=O)O; Orn(iPr) = CC(C)NCCC[C@H](N)C(=O)O; aIle = CC[C@@H](C)[C@H](N)C(=O)O; d3Pal = N[C@H](Cc1cccnc1)C(=O)O; Picolinoyl = O=C(c1ccccn1)*; Abu = CC[C@H](N)C(=O)O
system: anaesthesized rats; assay: wheal test, intradermal injection; assay type: in vivo, rat; parameters: Wheal (wheal response): unit not given here; conditions: 10 ug peptide intradermally
Outline: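 Anaesthetized rats given intradermal injection of 10 ug peptide in 100 ul saline; area of the wheal calculated from its diameter.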

| Wheal Area [mm^2 /10 μg] | SMILES |
| --- | --- |
| 113.2 ± 5.4 | CC[C@H](NC(=O)[C@@H](CCCCNC(=O)c1ccccn1)NC(=O)[C@H](CCCCNC(=O)c1ccccn1)NC(=O)[C@H](CO)NC(=O)[C@@H](Cc1cccnc1)NC(=O)[C@@H](Cc1ccc(Cl)cc1)NC(=O)[C@@H](Cc1ccc2ccccc2c1)NC(C)=O)C(=O)N[C@@H](CCCNC(=N)N)C(=O)N1CCC[C@H]1C(=O)N[C@H](C)C(N)=O [compound 26346] (Ac-[d2Nal][dPhe(4-Cl)][d3Pal]SK(Picolinoyl)[dK](Picolinoyl)[Abu]RP[dA]-NH2) |
| 71.0 ± 4.3 | CC(=O)N[C@H](Cc1ccc2ccccc2c1)C(=O)N[C@H](Cc1ccc(Cl)cc1)C(=O)N[C@H](Cc1c[nH]c2ccccc12)C(=O)N[C@@H](CO)C(=O)N[C@@H](CCCCNC(=O)c1ccccn1)C(=O)N[C@H](CCCCNC(=O)c1ccccn1)C(=O)N[C@@H](CC(C)C)C(=O)N[C@@H](CCCCNC(C)C)C(=O)N1CCC[C@H]1C(=O)N[C@H](C)C(N)=O [compound 26177] (Ac-[d2Nal][dPhe(4-Cl)][dW]SK(Picolinoyl)[dK](Picolinoyl)L[Lys(iPr)]P[dA]-NH2) |
| 110.7 ± 2.3 | CC[C@H](C)[C@H](NC(=O)[C@@H](CCCCNC(=O)c1ccccn1)NC(=O)[C@H](CCCCNC(=O)c1ccccn1)NC(=O)[C@H](CO)NC(=O)[C@@H](Cc1cccnc1)NC(=O)[C@@H](Cc1ccc(Cl)cc1)NC(=O)[C@@H](Cc1ccc2ccccc2c1)NC(C)=O)C(=O)N[C@@H](CCCCNC(C)C)C(=O)N1CCC[C@H]1C(=O)N[C@H](C)C(N)=O [compound 26020] (Ac-[d2Nal][dPhe(4-Cl)][d3Pal]SK(Picolinoyl)[dK](Picolinoyl)I[Lys(iPr)]P[dA]-NH2) |
| 99.5 ± 4.5 | CC(=O)N[C@H](Cc1ccc2ccccc2c1)C(=O)N[C@H](Cc1ccc(Cl)cc1)C(=O)N[C@H](Cc1cccnc1)C(=O)N[C@@H](CO)C(=O)N[C@@H](C[C@H]1CC[C@@H](NC(=O)c2cnccn2)CC1)C(=O)N[C@H](CCCCNC(=O)c1ccccn1)C(=O)N[C@@H](CC(C)C)C(=O)N[C@@H](CCCCNC(C)C)C(=O)N1CCC[C@H]1C(=O)N[C@H](C)C(N)=O [compound 26180] (Ac-[d2Nal][dPhe(4-Cl)][d3Pal]S[X2][dK](Picolinoyl)L[Lys(iPr)]P[dA]-NH2) |
| 113.2 ± 5.5 | CC(=O)N[C@H](Cc1ccc2ccccc2c1)C(=O)N[C@H](Cc1ccc(Cl)cc1)C(=O)N[C@H](Cc1cccnc1)C(=O)N[C@@H](CO)C(=O)N[C@@H](Cc1ccc(O)cc1)C(=O)N[C@H](CCCCNC(=O)c1ccccn1)C(=O)N[C@@H](CC(C)C)C(=O)N[C@@H](CCCNC(C)C)C(=O)N1CCC[C@H]1C(=O)N[C@H](C)C(N)=O [compound 26363] (Ac-[d2Nal][dPhe(4-Cl)][d3Pal]SY[dK](Picolinoyl)L[Orn(iPr)]P[dA]-NH2) |
| 115.5 ± 2.4 | CC(=O)N[C@H](Cc1ccc2ccccc2c1)C(=O)N[C@H](Cc1ccc(Cl)cc1)C(=O)N[C@H](Cc1cccnc1)C(=O)N[C@@H](CO)C(=O)N[C@@H](C[C@H]1CC[C@@H](NC(=O)c2cnccn2)CC1)C(=O)N[C@H](C[C@H]1CC[C@@H](NC(=O)c2cnccn2)CC1)C(=O)N[C@@H](CC(C)C)C(=O)N[C@@H](CCCCNC(C)C)C(=O)N1CCC[C@H]1C(=O)N[C@H](C)C(N)=O [compound 26326] (Ac-[d2Nal][dPhe(4-Cl)][d3Pal]S[X2][dAla(cis-4-NHCOPyz-cHex)]L[Lys(iPr)]P[dA]-NH2) |
| 116.2 ± 5.5 | CC(=O)N[C@H](Cc1ccc2ccccc2c1)C(=O)N[C@H](Cc1cccnc1)C(=O)N[C@H](Cc1ccc(Cl)cc1)C(=O)N[C@@H](CO)C(=O)N[C@@H](CCCCNC(=O)c1ccccn1)C(=O)N[C@H](CCCCNC(=O)c1ccccn1)C(=O)N[C@@H](CC(C)C)C(=O)N[C@@H](CCCNC(C)C)C(=O)N1CCC[C@H]1C(=O)N[C@H](C)C(N)=O [compound 26364] (Ac-[d2Nal][d3Pal][dPhe(4-Cl)]SK(Picolinoyl)[dK](Picolinoyl)L[Orn(iPr)]P[dA]-NH2) |
| 78.6 ± 4.5 | CC[C@@H](C)[C@H](NC(=O)[C@@H](CCCCNC(=O)c1ccccn1)NC(=O)[C@H](CCCCNC(=O)c1ccccn1)NC(=O)[C@H](CO)NC(=O)[C@@H](Cc1cccnc1)NC(=O)[C@@H](Cc1ccc(Cl)cc1)NC(=O)[C@@H](Cc1ccc2ccccc2c1)NC(C)=O)C(=O)N[C@@H](CCCNC(C)C)C(=O)N1CCC[C@H]1C(=O)N[C@H](C)C(N)=O [compound 26178] (Ac-[d2Nal][dPhe(4-Cl)][d3Pal]SK(Picolinoyl)[dK](Picolinoyl)[aIle][Orn(iPr)]P[dA]-NH2) |
| 123.0 ± 5.0 | CC(=O)N[C@H](Cc1ccc2ccccc2c1)C(=O)N[C@H](Cc1ccc(Cl)cc1)C(=O)N[C@H](Cc1cccnc1)C(=O)N[C@@H](CO)C(=O)N[C@@H](CCCCNC(=O)c1ccccn1)C(=O)N[C@H](C[C@H]1CC[C@@H](NC(=O)c2ccccn2)CC1)C(=O)N[C@@H](CC(C)C)C(=O)N[C@@H](CCCCNC(C)C)C(=O)N1CCC[C@H]1C(=O)N[C@H](C)C(N)=O [IV-4] (Ac-[d2Nal][dPhe(4-Cl)][d3Pal]SK(Picolinoyl)[X1]L[Lys(iPr)]P[dA]-NH2) |

same assay, conditions: Table XIV and text, unit not given

| Wheal (wheal response) | SMILES |
| --- | --- |
| 113.2 ± 5.4 | CC[C@H](NC(=O)[C@@H](CCCCNC(=O)c1ccccn1)NC(=O)[C@H](CCCCNC(=O)c1ccccn1)NC(=O)[C@H](CO)NC(=O)[C@@H](Cc1cccnc1)NC(=O)[C@@H](Cc1ccc(Cl)cc1)NC(=O)[C@@H](Cc1ccc2ccccc2c1)NC(C)=O)C(=O)N[C@@H](CCCNC(=N)N)C(=O)N1CCC[C@H]1C(=O)N[C@H](C)C(N)=O [compound 26346] (Ac-[d2Nal][dPhe(4-Cl)][d3Pal]SK(Picolinoyl)[dK](Picolinoyl)[Abu]RP[dA]-NH2) |
| 99.5 ± 4.5 | CC(=O)N[C@H](Cc1ccc2ccccc2c1)C(=O)N[C@H](Cc1ccc(Cl)cc1)C(=O)N[C@H](Cc1cccnc1)C(=O)N[C@@H](CO)C(=O)N[C@@H](C[C@H]1CC[C@@H](NC(=O)c2cnccn2)CC1)C(=O)N[C@H](CCCCNC(=O)c1ccccn1)C(=O)N[C@@H](CC(C)C)C(=O)N[C@@H](CCCCNC(C)C)C(=O)N1CCC[C@H]1C(=O)N[C@H](C)C(N)=O [compound 26180] (Ac-[d2Nal][dPhe(4-Cl)][d3Pal]S[X2][dK](Picolinoyl)L[Lys(iPr)]P[dA]-NH2) |
| 115.5 ± 2.4 | CC(=O)N[C@H](Cc1ccc2ccccc2c1)C(=O)N[C@H](Cc1ccc(Cl)cc1)C(=O)N[C@H](Cc1cccnc1)C(=O)N[C@@H](CO)C(=O)N[C@@H](C[C@H]1CC[C@@H](NC(=O)c2cnccn2)CC1)C(=O)N[C@H](C[C@H]1CC[C@@H](NC(=O)c2cnccn2)CC1)C(=O)N[C@@H](CC(C)C)C(=O)N[C@@H](CCCCNC(C)C)C(=O)N1CCC[C@H]1C(=O)N[C@H](C)C(N)=O [compound 26326] (Ac-[d2Nal][dPhe(4-Cl)][d3Pal]S[X2][dAla(cis-4-NHCOPyz-cHex)]L[Lys(iPr)]P[dA]-NH2) |

From patent publication US5763404A, “Methods for using LHRH antagonists with low histamine release” (priority 1995, dated 1998)
